We go through 15 compounds from patent US8648089B2, “1,3,6-substituted indole derivatives having inhibitory activity for protein kinase” (Korea Institute of Science and Technology, priority 2009, dated 2014).

The target of data set [1] is B-Raf-V600E kinase (Homo sapiens, UniProt P15056, V600E). In words: B-Raf kinase activity (kinase cascade assay). Type of data set: biochemical. To be noted: MEK1/Erk2/MBP, [γ-32P] ATP, read-out: B-Raf-V600E kinase inhibitory activity (IC50). As to the method: Measurement of B-Raf Kinase Activity (Kinase Cascade Assay)
Chain of B-Raf-V600E kinase (P15056 whole entry V600E): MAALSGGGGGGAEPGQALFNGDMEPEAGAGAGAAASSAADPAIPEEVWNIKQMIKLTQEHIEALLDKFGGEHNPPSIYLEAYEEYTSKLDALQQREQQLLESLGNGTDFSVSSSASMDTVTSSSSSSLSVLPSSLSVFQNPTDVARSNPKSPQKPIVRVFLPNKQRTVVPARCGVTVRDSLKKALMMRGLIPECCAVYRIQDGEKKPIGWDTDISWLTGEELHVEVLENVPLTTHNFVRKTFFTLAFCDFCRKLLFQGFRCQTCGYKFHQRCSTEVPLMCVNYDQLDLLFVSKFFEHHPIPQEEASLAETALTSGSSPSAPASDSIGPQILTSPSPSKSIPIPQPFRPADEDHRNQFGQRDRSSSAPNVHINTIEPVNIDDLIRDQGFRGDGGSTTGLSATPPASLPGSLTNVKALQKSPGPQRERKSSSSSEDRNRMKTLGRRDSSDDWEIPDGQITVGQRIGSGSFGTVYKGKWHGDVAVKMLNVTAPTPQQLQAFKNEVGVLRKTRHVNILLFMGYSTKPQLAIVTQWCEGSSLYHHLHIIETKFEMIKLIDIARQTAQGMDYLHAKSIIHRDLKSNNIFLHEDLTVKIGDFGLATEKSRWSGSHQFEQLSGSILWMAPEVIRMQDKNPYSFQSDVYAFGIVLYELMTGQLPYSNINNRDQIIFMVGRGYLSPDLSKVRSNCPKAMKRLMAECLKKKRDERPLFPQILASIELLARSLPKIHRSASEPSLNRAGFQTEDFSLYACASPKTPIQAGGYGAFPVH
(1) Activation of MAP Kinase 2/Erk2 by B-Raf
Magnesium/ATP solution (500 μM ATP, 75 mM magnesium chloride) was prepared (10 μL). Diluted B-Raf-V600E enzyme (2.5 μL) was added at a final concentration of 1 ng/mL. and inactivated MEK1 (1.6 μL) was added at a final concentration of 0.4 μg/mL. Then, inactivated MAP Kinase 2/Erk2 (4 μL) was added at a final concentration of 1.0 μg/mL. The test compound was prepared at a concentration of 10 mM in dimethylsulfoxide (DMSO) and diluted to various concentrations (DMSO 2.6%). The final volume was adjusted to 38 μL by adding Assay Dilution Butter I (ADBI) and the mixture was allowed to react at 30° C. for 30 minutes. 5 μL of the mixture solution was taken to perform the next process.
(2) Phosphorylation of Myelin Basic Protein (MBP)
The mixture solution (5 μL) was treated with assay dilution buffer (10 μL) and then with myelin basic protein (MBP, 2 mg/mL, 10 μL). [γ-32P] ATP (100 μCi/container) diluted to 1/10 was added in 10 μL aliquots. After reaction at 30° C. for […] and then placing P81 paper in a scintillation vial, spotting was performed slowly using 25 μL of the reaction mixture. After washing 4 times with 0.75% phosphoric acid for 10 minutes and washing once with acetone for 5 minutes, 5 mL of scintillation cocktail was added to the scintillation vial. Signals were recorded using a scintillation counter.

Data set [2] deals with A375P cells. In words: Inhibitory activity against proliferation of A375P melanoma cells (MTT assay). Type of data set: cell-based. To be noted: A375P human melanoma cells with B-Raf-V600E. As for the experimental part: Measurement of Inhibitory Activity Against Proliferation of A375P Melanoma Cells
A375P cells purchased from ATCC were cultured in DMEM [10% FBS, 1% penicillin/streptomycin] at 37° C. in the presence of 5% CO2. The cultured A375P cells were harvested with 0.05% trypsin-0.02% EDTA and seeded in a 96-well plate at 5×10^3 cells per well.
3-(4,5-Dimethylthiazol-2-yl)-2,5-diphenyltetrazolium bromide (MTT) assay (CellTiter 96 Assay, Promega) was employed to measure cell viability. After adding 15 μL of a dye per well and culturing for 2 hours, the cells were treated with 100 μL of a stop solution and absorbance was measured 24 hours later. The test compound was treated a day after plating. The test compound had been sequentially diluted at 12 concentrations from a 10 mM stock solution using sterilized dimethylsulfoxide (DMSO) and treated with an amount of 0.5 μL. Absorbance at 590 nm was recorded using EnVision2103, and GI50 value was calculated using GraphPad Prism 4.0 software.
The inhibitory activity against proliferation of the A375P cells of some typical compounds according to the present invention is given in Table 2.

Data set [3] deals with A375 melanoma cells. To be noted: read-out: proliferation of A375 melanoma cells IC50; cited from earlier work.
The conditions of data set [4]: 600 mg twice a day, clinical; cited from earlier work.

On to “4-(6-(4-methoxyphenyl)-1-(6-(methylamino)pyrimidin-4-yl)-1H-indol-3-yl)benzoate [Example 30]”, for which, in data set [1], the IC50 was below 10 µM. In addition, the GI50 in data set [2] is below 10 µM.

The compound `O=[N+]([O-])c1cccc(-c2ccc3c(Br)cn(-c4cc(Cl)ncn4)c3c2)c1` [Example 9, 3-bromo-1-(6-chloropyrimidin-4-yl)-6-(3-nitrophenyl)-1H-indole] came in with a GI50 in data set [2] below 10 µM.

In data set [2], `COc1ccc(-c2cn(-c3ccncc3)c3cc(N4CCN(C(=O)OC(C)(C)C)CC4)ccc23)cc1` [Example 13, tert-butyl 4-(3-(4-methoxyphenyl)-1-(pyridin-4-yl)-1H-indol-6-yl)piperazine-1-carboxylate] displayed a GI50 below 10 µM.

In data set [2], `COc1ccc(-c2cn(-c3ccncc3)c3cc(N4CCNCC4)ccc23)cc1` [Example 14, 3-(4-methoxyphenyl)-6-(piperazin-1-yl)-1-(pyridin-4-yl)-1H-indole] registered a GI50 below 10 µM.

Take `CC(=O)Nc1cccc(-c2ccc3c(-c4ccc(OCCN(C)C)cc4)cn(-c4ccncc4)c3c2)c1` [Example 25, N-(3-(3-(4-(2-(dimethylamino)ethoxy)phenyl)-1-(pyridin-4-yl)-1H-indol-6-yl)phenyl)acetamide]: in data set [1], the IC50 was below 10 µM.

In data set [2], `CNc1cc(-n2cc(-c3cccc([N+](=O)[O-])c3)c3ccc(-c4ccc(OC)cc4)cc32)ncn1` [Example 26, 6-(6-(4-methoxyphenyl)-3-(3-nitrophenyl)-1H-indol-1-yl)-N-methylpyrimidin-4-amine] showed a GI50 below 10 µM.

As for `CNc1cc(-n2cc(-c3cccc(N)c3)c3ccc(-c4ccc(OC)cc4)cc32)ncn1` [Example 27, 6-(3-(3-aminophenyl)-6-(4-methoxyphenyl)-1H-indol-1-yl)-N-methylpyrimidin-4-amine], the IC50 in data set [1] was below 10 µM. In addition, the GI50 in data set [2] is below 10 µM.

For `CNc1cc(-n2cc(-c3cccc(NC(C)=O)c3)c3ccc(-c4ccc(OC)cc4)cc32)ncn1` [Example 28, N-(3-(6-(4-methoxyphenyl)-1-(6-(methylamino)pyrimidin-4-yl)-1H-indol-3-yl)phenyl)acetamide], the GI50 in data set [2] is below 10 µM.

`CNc1cc(-n2cc(-c3ccc(C(=O)NCCN4CCOCC4)cc3)c3ccc(-c4ccc(OC)cc4)cc32)ncn1` [Example 31, 4-(6-(4-methoxyphenyl)-1-(6-(methylamino)pyrimidin-4-yl)-1H-indol-3-yl)-N-(2-morpholinoethyl)benzamide] returned a GI50 in data set [2] below 10 µM.

With `COc1ccc(-c2cn(-c3ccnc([S+](C)[O-])n3)c3cc(-c4cccc([N+](=O)[O-])c4)ccc23)cc1` (stereo not drawn) [Example 33, 3-(4-methoxyphenyl)-1-(2-(methylsulfinyl)pyrimidin-4-yl)-6-(3-nitrophenyl)-1H-indole], in data set [2], the GI50 was below 10 µM.

`CNc1cc(-n2cc(-c3ccc(OC)cc3)c3ccc(-c4cccc(NC(=O)Nc5ccc(Cl)c(C(F)(F)F)c5)c4)cc32)ncn1` [Example 37, 1-(4-chloro-3-(trifluoromethyl)phenyl)-3-(3-(3-(4-methoxyphenyl)-1-(6-(methylamino)pyrimidin-4-yl)-1H-indol-6-yl)phenyl)urea] came in with a GI50 in data set [2] below 10 µM.

Take `CNc1cc(-n2cc(-c3ccc(OC)cc3)c3ccc(-c4cccc(NC(=O)Nc5ccccc5OC)c4)cc32)ncn1` [Example 39, 1-(2-methoxyphenyl)-3-(3-(3-(4-methoxyphenyl)-1-(6-(methylamino)pyrimidin-4-yl)-1H-indol-6-yl)phenyl)urea]: in data set [1], the IC50 is below 10 µM. The compound also had a concentration for 50% growth inhibition (GI50) in data set [2] below 10 µM.

`CNc1cc(-n2cc(-c3cccc(NC(=O)Nc4ccc(Cl)c(C(F)(F)F)c4)c3)c3ccc(-c4ccc(OC)cc4)cc32)ncn1` [Example 45, 1-(4-chloro-3-(trifluoromethyl)phenyl)-3-(3-(6-(4-methoxyphenyl)-1-(6-(methylamino)pyrimidin-4-yl)-1H-indol-3-yl)phenyl)urea] returned a GI50 in data set [2] below 10 µM.

`CCCS(=O)(=O)Nc1ccc(F)c(C(=O)c2c[nH]c3ncc(Cl)cc23)c1F` [PLX4720]: in data set [3], the IC50 is 0.5 µM.

Turning to `CNC(=O)c1cc(Oc2ccc(NC(=O)Nc3ccc(Cl)c(C(F)(F)F)c3)cc2)ccn1` [sorafenib, Sorafenib], in data set [4], the “skin toxicity on administration” value was “grade 3 skin toxicity”.
